Measured values: patent publication US5663175A, “Prodrugs of herpes TK inhibitors” (Merck & Co. Inc., priority 1994, dated 1997)

Molecular target: herpes thymidine kinase (Human herpesvirus 1, UniProt P0DTH5)
Experiment: Assay for inhibition of herpes thymidine kinase
Type: biochemical
Experimental: The assay mixture contains in a final volume of 110 microliters the following: 50 mM Tris-HCl, pH 7.5; 5 mM MgCl2; 5 mM ATP; 2 mM dithiothreitol (DTT); 2.5 mM KF; 0.25 mg/ml bovine serum albumin (BSA); […] thymidine labeled with either ^14 C or ^3 H; the compound being tested as inhibitor; and the viral thymidine kinase. The amount of enzyme, incubation time and temperature are adjusted so that no more than 20% of the substrate is converted to product in a reaction without inhibitor. At the end of the incubation period, 100 microliters of the assay mixture are spotted on a 25 mm disk of DEAE paper. The disks are washed three times with ethanol to remove unreacted thymidine and the amount of thymidine monophosphate produced is determined by scintillation counting of the disks. The results (in IC50) are calculated to give the concentration of inhibitor resulting in 50% inhibition of enzyme. The IC50 of L-58,340 is about 100 nM.

Sequence of herpes thymidine kinase (P0DTH5 whole entry): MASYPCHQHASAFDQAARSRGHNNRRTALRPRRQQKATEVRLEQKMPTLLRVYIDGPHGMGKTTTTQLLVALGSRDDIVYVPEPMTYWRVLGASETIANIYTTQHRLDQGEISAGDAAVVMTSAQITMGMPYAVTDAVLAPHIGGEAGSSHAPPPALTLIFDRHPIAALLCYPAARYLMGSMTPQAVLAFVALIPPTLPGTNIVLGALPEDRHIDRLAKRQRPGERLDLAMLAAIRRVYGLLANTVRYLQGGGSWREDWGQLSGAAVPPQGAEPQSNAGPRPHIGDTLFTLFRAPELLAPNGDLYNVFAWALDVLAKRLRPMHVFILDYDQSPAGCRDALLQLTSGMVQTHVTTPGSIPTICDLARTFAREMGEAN

IC50 (2 mM labeled thymidine, 5 mM ATP, pH 7.5, read-out: IC50 (concentration of inhibitor resulting in 50% inhibition of enzyme)): ~100 nM
activity as an inhibitor of herpes thymidine kinase relative to its enantiomer (compared with its enantiomer): substantially more active
inhibition of herpes thymidine kinase (in words) (first principal finding): potent inhibitor
Compound: Nc1nc2c(ncn2C[C@H]2CCCC[C@H]2CO)c(=O)[nH]1 [L-758,340, 9-{[1(R)-hydroxymethyl-2(S)-cyclohexyl]methyl}guanine]
